Assay: xn = mol fraction of the nth substance listed
Details: 100 kPa

CCCCCC[n+]1ccn(C)c1.O=[N+]([O-])[O-] + CCCC(C)O
viscosity [mPa·s]
Details | 293.15 K | 298.15 K | 303.15 K | 308.15 K | 313.15 K | 318.15 K | 323.15 K
x1 = 0.0814 | 8.28 | 6.18 | – | 3.48 | – | 2.12 | –
x1 = 0.1609 | 14.69 | – | 7.26 | 5.08 | 3.72 | 2.81 | 2.11
x1 = 0.2408 | – | 16.18 | 11.09 | 7.43 | 5.31 | 3.76 | 2.74
x1 = 0.3491 | 42.8 | 29 | 19.05 | 12.22 | 8.55 | 5.85 | 4.09
x1 = 0.4393 | 69 | 44.8 | 29.4 | 18.45 | 12.22 | 8.65 | 6.05
x1 = 0.5608 | 122.5 | 79.4 | 50.9 | 32 | 21.2 | 14.52 | 10.28
x1 = 0.6509 | 177 | 117.2 | 76.9 | 49.3 | 33 | 22.4 | –
x1 = 0.7401 | – | 173.4 | – | – | 50.1 | 34.9 | 25.8
x1 = 0.8508 | – | 285 | 189 | 125.3 | 85.7 | 61.8 | 47.3
x1 = 0.9393 | 614 | 416 | 282 | 195 | 136.2 | 99.7 | 76.9
x1 = 1 | 804 | 545 | 369 | 258 | 186 | 140.2 | –

CCCC(C)O (configuration not stated) + CCCCCC[n+]1ccn(C)c1.O=[N+]([O-])[O-]
x2 = 0
Details | viscosity [mPa·s]
293.15 K | 3.97
298.15 K | 3.32
303.15 K | 2.81
308.15 K | 2.37
313.15 K | 1.99
318.15 K | 1.66
